Results from patent US20040092584A1, “Substance or composition for the treatment of cancer” (priority 2000, published 2004).

Legend:
HeLa = experiment: Growth of cancer cell lines, MTT reactivity (HeLa); assay type: cell-based, human; conditions: mean drug concentration causing 50% cell killing, 3-4 experiments, 72 to 96 h, read-out: IC 50 (μM) HeLa
Description: (§1) The sensitivities of the two cancer cell lines HeLa, which is a sensitive human cervix epitheloid carcinoma cell line, and CoLo 320DM, which is an intrinsically multidrug resistant human colon adeno-carcinoma cell line, to 13 of the complexes of the invention was tested.

CoLo 320DM = experiment: Growth of cancer cell lines, MTT reactivity (CoLo 320DM); assay type: cell-based, human; conditions: mean drug concentration causing 50% cell killing, 3-4 experiments, 72 to 96 h, multidrug resistant line, read-out: IC 50 (μM) CoLo 320DM
Description: as §1

COR L23 = experiment: Growth of cancer cell lines, MTT reactivity (COR L23); assay type: cell-based, human; conditions: mean drug concentration causing 50% cell killing, 3-4 experiments, 72 to 96 h, read-out: IC 50 (μM) COR L23
Description: (§2) In these experiments cancer cell lines were cultured in standard tissue culture medium supplemented with 10% fetal calf serum (FCS) at 37° C. In an atmosphere of 5% CO2 in 96 well round bottom microtitre plates. The cultures were treated with either ferrocene-containing β-diketones or their rhodium complexes at varying concentrations for 72 to 96 h, and the extent of cell growth was assayed by MTT [3-(4,5-dimethylthiazol-2yl)-2,5-diphenyl tetrazolium bromide] reactivity, which detects only viable cells.

COR L23/CPR = experiment: Growth of cancer cell lines, MTT reactivity (COR L23/CPR); assay type: cell-based, human; conditions: mean drug concentration causing 50% cell killing, 3-4 experiments, 72 to 96 h, platinum resistant variant, read-out: IC 50 (μM) COR L23/CPR
Description: as §2

[1] = system: Chinese hamster ovary (CHO) cells; experiment: Survival of CHO cells after irradiation under hypoxic conditions; assay type: cell-based; conditions: for Mean Inactivation Dose (Gy) / Dose Modifying Factor (DMF): hypoxic conditions; for Mean Inactivation Dose (Gy): 8 MV photon beam; for Dose Modifying Factor (DMF): ratio of mean inactivation doses; for Sensitivity of CHO cells to irradiation under hypoxic conditions (in words): submicromolar concentrations
Description: CHO cells were treated in glass test tubes with non-toxic concentrations (0.39 μM and 0.78 μM) of the two rhodium-ferrocene complexes [Rh(fctca)(cod)] and [Rh(fctfa)(cod)] and irradiated with an 8 MV photon beam in a modular incubator chamber with a 2 cm tissue equivalent wax buildup (8MVmax) under aerobic and hypoxic conditions.
Neither of the two rhodium complexes tested increased the sensitivity of CHO cells to irradiation in an aerobic environment (results not shown). However, both complexes increased the sensitivity of CHO cells under hypoxic conditions (FIGS. 4 and 5). A dose-modifying factor of 2.9 was obtained under hypoxic conditions for 0.78 μM [Rh(fctfa)(cod)] (Table 2) and 1.9 for 0.39 μM [Rh(fctca)(cod)] (Table 3). The dose-modifying factors were calculated as the ratio of mean inactivation doses [calculated from the respective inactivation parameters obtained from the linear quadratic fit of the cell growth fraction (S)]. Published dose modifying factors (DMFs) measured for cisplatin range from 1.2-2 (Chibber R, Stratford I J, O'Neill P, Sheldon P W, Ahmed I, Lee B. 1985. The interaction between radiation and complexes of cis-Pt (II) and Rh (II): Studied at the molecular level. Int J Radiat Biol 48:513-524; Van De Vaart,. P J M, Klaren, H M, Holland I, Begg A C. 1997. Oral platinum analogue JM216, a radiosensitizer in oxic murine cells. Int J Radiat Biol 72(6):675-683).

[2] = system: PHA-stimulated human lymphocytes; experiment: Proliferation of PHA-stimulated human lymphocytes, MTT reactivity; conditions: for IC50: read-out: IC 50 (μM) PHA-stimulated lymphocytes, mean drug concentration causing 50% cell killing, PHA 2.5 μg/ml, 72 h, MTT; for Tumor specificity: activity against tumor cells versus stimulated normal human lymphocytes: tumor cells versus PHA-stimulated lymphocytes (Table 1)
Description: In these experiments suspensions of purified human mononuclear leukocytes were cultured in RPMI medium supplemented with 10% fetal calf serum (FCS) at 37° C. in an atmosphere of 5% CO2 in 96 well round bottom microtitre plates. To some of the wells a mitogen (phytohaemagglutinin, PHA) was added at a concentration of 2.5 μg/ml. The cultures were treated with either ferrocene-containing β-diketones or their rhodium complexes at varying concentrations for 72 h, and the extent of cell growth was assayed by MTT reactivity.

[3] = Anticancer activity of synthesis intermediates; conditions: intermediates of the published synthesis route
[4] = published values; cited from earlier work

Compound | IC50 (HeLa) | IC50 (CoLo 320DM) | IC50 (COR L23) | IC50 (COR L23/CPR) | IC50 [2] | further results
O=CCC(=O)[c-]1cccc1.[Fe+2].c1cc[cH-]c1 [Hfch, ferrocenoylacetaldehyde] | 73.4 µM | 80.8 µM |  |  |  | 
O=C(CC(=O)C(Cl)(Cl)Cl)[c-]1cccc1.[Fe+2].c1cc[cH-]c1 [Hfctca, ferrocenoyltrichloroacetone] | 37.7 µM | 28.4 µM | 12.5 µM | 20.1 µM | 67.5 µM | Radiosensitisation, initial tests (in words) [1]: promising
C1=C\CC/C=C\CC/1.CC(=O)/C=C(/C)O.[Rh] [Rh(acac)(cod)] | 97.3 µM | > 100 µM |  |  |  | 
C1=CCCC=CCC1.O=C(C=C([O-])c1ccccc1)[c-]1cccc1.[Fe+2].[Rh+].c1cc[cH-]c1 [Rh(bfcm)(cod), (η^4-1,5-cyclooctadiene)(1-ferrocenyl-3-phenyl-1,3-propanedionato-κ^2O,O′)rhodium(1)] | 28.3 µM | 87.1 µM | 22.5 µM | 22 µM | 97.2 µM | 
C1=CCCC=CCC1.CC([O-])=CC(=O)[c-]1cccc1.[Fe+2].[Rh+].c1cc[cH-]c1 [Rh(fca)(cod), (η^4-1,5-cyclooctadiene)(1-ferrocenyl-1,3-butanedionato-κ^2O,O′)rhodium(1)] | 64.4 µM | 56.6 µM |  |  |  | 
C1=CCCC=CCC1.O=C(C=C([O-])C(Cl)(Cl)Cl)[c-]1cccc1.[Fe+2].[Rh+].c1cc[cH-]c1 [Rh(fctca)(cod), (η^4-1,5-cyclooctadiene)(1-ferrocenyl-4,4,4-trichloro-1,3-butanedionato-κ^2O,O′)rhodium(1)] | 7.9 µM | 3 µM | 1.3 µM | 2 µM | 4.7 µM | Mean Inactivation Dose (Gy) ([1]; 0.39 μM complex): 3.73 Gy; Dose Modifying Factor (DMF) ([1]; 0.39 μM complex): 1.9; Mean Inactivation Dose (Gy) ([1]; 0.78 μM complex): 4.46 Gy; Dose Modifying Factor (DMF) ([1]; 0.78 μM complex): 1.6; Sensitivity of CHO cells to irradiation under hypoxic conditions (in words) [1]: compare favorably with cisplatin
C1=CCCC=CCC1.O=C(C=C([O-])C(F)(F)F)[c-]1cccc1.[Fe+2].[Rh+].c1cc[cH-]c1 [Rh(fctfa)(cod), (η^4-1,5-cyclooctadiene)(1-ferrocenyl-4,4,4-trifluooro-1,3-butanedionato-κ^2O,O′)rhodium(1)] | 12.5 µM | 13.4 µM | 8.5 µM | 5.8 µM | 41.6 µM | Mean Inactivation Dose (Gy) ([1]; 0.39 μM complex): 2.41 Gy; Dose Modifying Factor (DMF) ([1]; 0.39 μM complex): 2.6; Mean Inactivation Dose (Gy) ([1]; 0.78 μM complex): 2.19 Gy; Dose Modifying Factor (DMF) ([1]; 0.78 μM complex): 2.9; Sensitivity of CHO cells to irradiation under hypoxic conditions (in words) [1]: compare favorably with cisplatin; Tumor specificity: activity against tumor cells versus stimulated normal human lymphocytes [2]: 4-5 times
[Cl][Rh]([Cl])[Cl] [RhCl3] |  |  |  |  |  | Significant anticancer activity [3]: none
C1=CCCC=CCC1.O=C(C=C[O-])[c-]1cccc1.[Rh+].[Ru+2].c1cc[cH-]c1 [[Rh(RcH)(cod)], (η^4-1,5-cyclooctadiene)(1-ruthenocenyl-1,3-propanedionato-κ^2O,O′)rhodium(1)] | 52 µM | 68.8 µM | 34 µM | 39.6 µM |  | 
C1=CCCC=CCC1.O=C(C=C([O-])[c-]1cccc1)c1ccccc1.[Rh+].[Ru+2].c1cc[cH-]c1 [[Rh(brcm)(cod)], (η^4-1,5-cyclooctadiene)(1-ruthenocenyl-3-phenyl-1,3-propanedionato-κ^2O,O′)rhodium(1)] | 16.2 µM | 20.4 µM | 15.8 µM | 14.1 µM |  | 
C1=CCCC=CCC1.O=C(C=C([O-])[c-]1cccc1)[c-]1cccc1.[Fe+2].[Rh+].[Ru+2].c1cc[cH-]c1.c1cc[cH-]c1 [[Rh(fcrcm)(cod)], (η^4-1,5-cyclooctadiene)(1-ferrocenyl-3-ruthenocenyl-1,3-propanedionato-κ^2O,O′)rhodium(1)] | 17.1 µM | 29.2 µM | 10.1 µM | 20.1 µM |  | 
C1=CCCC=CCC1.CC(=O)C=C([O-])[c-]1cccc1.[Rh+].[Ru+2].c1cc[cH-]c1 [[Rh(rca)(cod)], (η^4-1,5-cyclooctadiene)(1-ruthenocenyl-1,3-butanedionato-κ^2O,O′)rhodium(1)] | 4.86 µM | 3 µM | 0.18 µM | 2.74 µM |  | 
C1=CCCC=CCC1.O=C(C=C([O-])C(F)(F)F)[c-]1cccc1.[Rh+].[Ru+2].c1cc[cH-]c1 [[Rh(rctfa)(cod)], (η^4-1,5-cyclooctadiene)(1-ruthenocenyl-4,4,4-trifluooro-1,3-butanedionato-κ^2O,O′)rhodium(1)] | 54.7 µM | 67.4 µM | 49.2 µM | 48 µM |  | 
C1=C\CC/C=C\CC/1.C1=C\CC/C=C\CC/1.[Cl-].[Cl-].[Rh].[Rh] [[RhCl(cod)]2] |  |  |  |  |  | Significant anticancer activity [3]: none
N.N.[Cl][Pt][Cl] [cisplatin] |  |  |  |  |  | Published dose modifying factors (DMFs) [4]: 1.2-2
(η^4-1,5-cyclooctadiene)(1,3-diferrocenyl-1,3-propanedionato-κ^2O,O′)rhodium(1) [Rh(dfcm)(cod)] | 18.4 µM | 70.8 µM | 19.9 µM | 30.8 µM | 42.2 µM | 
(η^4-1,5-cyclooctadiene)(1-ferrocenyl-1,3-propanedionato-κ^2O,O′)rhodium(1) [Rh(FcH)(cod)] | 62.4 µM | 35.4 µM |  |  |  | 
acetyl ferrocene |  |  |  |  |  | Significant anticancer activity [3]: none
benzoylferrocenoylmethane [Hbfcm] | 54.2 µM | 85.1 µM | 66.8 µM | 80.4 µM | > 100 µM | 
diferrocenoylmethane [Hdfcm] | 54.4 µM | 64.3 µM | 75.4 µM | 74.4 µM | > 100 µM | 
ferrocenoylacetone [Hfca] | 66.6 µM | 57.1 µM |  |  |  | 
ferrocenoyltrifluoroacetone [Hfctfa] | 6.8 µM | 7.3 µM | 4.5 µM | 6.3 µM | 83.1 µM | Radiosensitisation, initial tests (in words) [1]: promising; Tumor specificity: activity against tumor cells versus stimulated normal human lymphocytes [2]: eight
